Assay: Stability in DMSO / water (HPLC)
Type: physicochemical
Procedure: Next, the stability of 3,5-DCQA was evaluated in various concentrations of DMSO. 5.2 mg 3,5-DCQA was dissolved in 0.208 ml DMSO (conc.=25 mg/ml), and then diluted with water as 40% DMSO in water solution, 20% DMSO in water solution, and 10% DMSO in water solution, respectively. All samples were subjected on HPLC in 0 Day, 1 Day, 2 Day and 4 Day, and the Area % of 3,5-DCQA was calculated.
In the presence of water, 3,5-DCQA was converted into 4,5-dicaffeoylquinic acid (4,5-DCQA), as observed using HPLC. HPLC analysis of 3,5-DCQA in DMSO and H2O (conc.=2.5 mg/ml) at 0 day, 2 Day and 4 Day indicated a progressive degradation of 3,5-DCQA. By the forth day in 10% DMSO in H2OP, over 11% of 3,5-DCQA was changed into 4,5-DCQA.

SMILES: O=C(/C=C/c1ccc(O)c(O)c1)OC1CC(O)(C(=O)O)CC(OC(=O)/C=C/c2ccc(O)c(O)c2)C1O (stereo not shown) [CJ4-16-4, 3,5-di-O-caffeoylquinic acid]
- 3,5-DCQA changed into 4,5-DCQA (10% DMSO in H2O (2.5 mg/ml), fourth day): over 11%
- Area % of 3,5-DCQA (HPLC) (10% DMSO in H2O, 0 Day): 97.25 Area %
- Area % of 3,5-DCQA (HPLC) (10% DMSO in H2O, 1 Day): 93.60 Area %
- Area % of 3,5-DCQA (HPLC) (10% DMSO in H2O, 2 Day): 89.50 Area %
- Area % of 3,5-DCQA (HPLC) (10% DMSO in H2O, 4 Day): 86.01 Area %
- Area % of 3,5-DCQA (HPLC) (20% DMSO in H2O, 1 Day): 94.56 Area %
- Area % of 3,5-DCQA (HPLC) (20% DMSO in H2O, 2 Day): 91.91 Area %
- Area % of 3,5-DCQA (HPLC) (20% DMSO in H2O, 4 Day): 89.08 Area %
- Area % of 3,5-DCQA (HPLC) (40% DMSO in H2O, 1 Day): 96.33 Area %
- Area % of 3,5-DCQA (HPLC) (40% DMSO in H2O, 2 Day): 94.72 Area %
- Area % of 3,5-DCQA (HPLC) (40% DMSO in H2O, 4 Day): 93.90 Area %
- Area % of 3,5-DCQA (HPLC) (100% DMSO (25 mg/ml), 0 Day): 97.28 Area %
- Area % of 3,5-DCQA (HPLC) (100% DMSO (25 mg/ml), 1 Day): 97.34 Area %
- Area % of 3,5-DCQA (HPLC) (100% DMSO (25 mg/ml), 2 Day): 97.15 Area %
- Area % of 3,5-DCQA (HPLC) (100% DMSO (25 mg/ml), 4 Day): 97.09 Area %
- degradation in 100% DMSO (in words) (100% DMSO, up to 4 Day): No statistically significant degradation

Source: US20060020029A1, “Pharmaceutical compositions from ethnobotanicals” (priority 2004, published 2006)
